From patent publication US20230416227A1, “PLASMA KALLIKREIN INHIBITORS” (Merck Sharp & Dohme LLC, priority 2020, published 2023)

Columns and labels:
Human plasma kallikrein = biological target: T1, Human plasma kallikrein (Homo sapiens, UniProt P03952); assay: Plasma Kallikrein Assay; assay type: biochemical; settings: purified Human plasma kallikrein 0.5 nM, substrate Acetyl-K-P-R-AFC, pH 7.4
T1 construct: yields a heavy chain (371 amino acids) and a light chain (248 amino acids); purchased Enzyme Research Laboratories
T1 sequence (P03952 391-638 limits assumed): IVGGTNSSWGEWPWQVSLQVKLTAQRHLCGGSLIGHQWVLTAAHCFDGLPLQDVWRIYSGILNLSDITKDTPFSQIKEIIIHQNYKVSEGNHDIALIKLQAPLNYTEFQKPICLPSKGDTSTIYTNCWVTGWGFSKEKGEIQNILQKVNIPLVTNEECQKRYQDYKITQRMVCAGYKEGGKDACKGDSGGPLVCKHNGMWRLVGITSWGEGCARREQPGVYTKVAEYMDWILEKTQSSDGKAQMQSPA
T1 sequence (P03952 20-390 partner limits assumed): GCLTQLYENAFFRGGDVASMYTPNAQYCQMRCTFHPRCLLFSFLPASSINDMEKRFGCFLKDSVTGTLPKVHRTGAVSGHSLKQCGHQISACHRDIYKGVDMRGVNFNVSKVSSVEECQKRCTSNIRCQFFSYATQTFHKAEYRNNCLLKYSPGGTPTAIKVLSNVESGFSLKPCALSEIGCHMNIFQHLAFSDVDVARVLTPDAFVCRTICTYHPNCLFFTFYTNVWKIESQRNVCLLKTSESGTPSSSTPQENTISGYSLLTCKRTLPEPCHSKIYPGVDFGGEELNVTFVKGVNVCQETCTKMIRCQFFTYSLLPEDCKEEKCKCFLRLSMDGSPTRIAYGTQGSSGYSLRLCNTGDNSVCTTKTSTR

human factor XIa = human factor XIa (Homo sapiens, UniProt P03951); assay: Factor XIa Assay; assay type: biochemical; settings: human factor XIa 0.04 nM, substrate GPR-AFC, 30 min pre-incubation at 25° C., pH 7.4; read-out: FXIa IC50
Sequence of human factor XIa (P03951 388-625 limits assumed): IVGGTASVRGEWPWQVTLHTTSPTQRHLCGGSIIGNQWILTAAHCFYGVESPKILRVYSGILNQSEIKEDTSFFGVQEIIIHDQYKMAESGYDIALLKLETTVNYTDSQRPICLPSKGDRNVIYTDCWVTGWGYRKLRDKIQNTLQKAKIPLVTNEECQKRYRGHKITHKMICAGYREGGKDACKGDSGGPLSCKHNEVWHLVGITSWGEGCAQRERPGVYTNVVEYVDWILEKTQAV
Sequence of human factor XIa (P03951 19-387 partner limits assumed): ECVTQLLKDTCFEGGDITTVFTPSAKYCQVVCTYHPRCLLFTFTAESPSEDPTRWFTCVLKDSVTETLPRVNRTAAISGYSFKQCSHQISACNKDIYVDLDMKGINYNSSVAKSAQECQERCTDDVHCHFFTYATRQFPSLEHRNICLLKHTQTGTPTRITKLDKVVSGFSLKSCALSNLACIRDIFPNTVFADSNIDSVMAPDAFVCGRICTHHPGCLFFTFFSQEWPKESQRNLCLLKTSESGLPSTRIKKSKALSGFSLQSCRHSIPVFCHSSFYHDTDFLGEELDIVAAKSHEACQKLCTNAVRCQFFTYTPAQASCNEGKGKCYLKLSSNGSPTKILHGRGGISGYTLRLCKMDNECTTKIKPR
Method: The effectiveness of a compound of the present invention as an inhibitor of Coagulation factor XIa can be determined using a relevant purified serine protease, and an appropriate synthetic substrate. The rate of hydrolysis of the chromogenic or fluorogenic substrate by the relevant serine protease was measured both in the absence and presence of compounds of the present invention. Assays were conducted at rt or at 37° C. […] A decrease in the rate of fluorescence change in the presence of inhibitor is indicative of enzyme inhibition. Such methods are known to one skilled in the art. The results of this assay are expressed as the half-maximal inhibitory concentrations (IC50), or the inhibitory constant, Ki.
Compounds were pre-incubated for 30 min at 25° C. with human (0.04 nM) factor XIa in 50 mM HEPES buffer with 150 mM sodium chloride, 5 mM calcium chloride, 0.1% PEG 8000, pH 7.4. factor XIa enzymatic activity was determined by addition of the substrate glycine-proline-arginine-7-amido-4-trifluoromethylcoumarin (GPR-AFC) and measurement of the fluorescence at 400/505 nm after a 60 min incubation at 25° C. The % inhibition for each data point was calculated from the data and analyzed using the log (inhibitor) vs. response four parameters equation to determine the half-maximal inhibitory concentrations (IC50). The IC50 were converted to equilibrium inhibitory constants (Ki) using the Cheng-Prusoff equation.

| SMILES | IC50 (Human plasma kallikrein) [nM] | IC50 (human factor XIa) [nM] |
| --- | --- | --- |
| CC(c1cnc(N2CCC2)cn1)n1cc(NC(=O)c2cncc(-c3c(C(F)F)ccc(Cl)c3F)n2)cn1 (single isomer, unassigned) [Example 29, (S or R)-N-(1-(1-(5-(azetidin-1-yl)pyrazin-2-yl)ethyl)-1H-pyrazol-4-yl)-6-(3-chloro-6-(difluoromethyl)-2-fluorophenyl)pyrazine-2-carboxamide] | 20.7 | 1770 |
| CC(c1cnc(N2CC3CC3C2)nc1)n1cc(NC(=O)c2cncc(-c3c(C(F)F)ccc(Cl)c3F)n2)cn1 (single isomer, unassigned) [Example 31, N-(1-((1S or 1R)-1-(2-(3-azabicyclo[3.1.0]hexan-3-yl)pyrimidin-5-yl)ethyl)-1H-pyrazol-4-yl)-6-(3-chloro-6-(difluoromethyl)-2-fluorophenyl)pyrazine-2-carboxamide] | 27 | 2720 |
| CC(c1cnc(N2CC3CC3C2)nc1)n1cc(NC(=O)c2nc(-c3c(C(F)F)ccc(Cl)c3F)cnc2N(C)C)cn1 (single isomer, unassigned) [Example 34, N-(1-((1R or 1S)-1-(2-(3-azabicyclo[3.1.0]hexan-3-yl)pyrimidin-5-yl)ethyl)-1H-pyrazol-4-yl)-6-(3-chloro-6-(difluoromethyl)-2-fluorophenyl)-3-(dimethylamino)pyrazine-2-carboxamide] | 28.1 | 3330 |
| O=C(Nc1cnn(C(c2cnc(N3CCC3)nc2)C(F)F)c1)c1cncc(-c2c(C(F)F)ccc(Cl)c2F)n1 (single isomer, unassigned) [Example 36, (S or R)-N-(1-(1-(2-(azetidin-1-yl)pyrimidin-5-yl)-2,2-difluoroethyl)-1H-pyrazol-4-yl)-6-(3-chloro-6-(difluoromethyl)-2-fluorophenyl)pyrazine-2-carboxamide] | 44.3 | 4430 |
| CC(c1ccc(N2CCC2)nc1)n1cc(NC(=O)c2cncc(-c3c(C(F)F)ccc(Cl)c3F)n2)cn1 (single isomer, unassigned) [Example 37, (S or R)-N-(1-(1-(6-(azetidin-1-yl)pyridin-3-yl)ethyl)-1H-pyrazol-4-yl)-6-(3-chloro-6-(difluoromethyl)-2-fluorophenyl)pyrazine-2-carboxamide] | 25.6 | 2700 |
| [2H]C(C)(c1cnc(N2CCC2)nc1)n1cc(NC(=O)c2cncc(-c3c(C(F)F)ccc(Cl)c3F)n2)cn1 (single isomer, unassigned) [Example 43, (R or S)-N-(1-(1-(2-(azetidin-1-yl)pyrimidin-5-yl)ethyl-1-d)-1H-pyrazol-4-yl)-6-(3-chloro-6-(difluoromethyl)-2-fluorophenyl)pyrazine-2-carboxamide] | 19.5 | 1170 |
| O=C(Nc1cnn(C(CO)c2cnc(N3CC4CC4C3)nc2)c1)c1cncc(-c2c(C(F)F)ccc(Cl)c2F)n1 (single isomer, unassigned) [Example 45, N-(1-((R or S)-1-(2-(3-Azabicyclo[3.1.0]hexan-3-yl)pyrimidin-5-yl)-2-hydroxyethyl)-1H-pyrazol-4-yl)-6-(3-chloro-6-(difluoromethyl)-2-fluorophenyl)pyrazine-2-carboxamide] | 23.2 | 992 |
| C[C@H](c1cnc(N2CCC2)nc1)n1cc(NC(=O)c2cncc(-c3c(C(F)(F)F)ccc(Cl)c3F)n2)cn1 (single isomer, unassigned) [Example 54] | 25.7 | 3030 |
| C[C@@H](c1cnc(N2CCC2)nc1)n1cc(NC(=O)c2cncc(-c3c(C(F)(F)F)ccc(Cl)c3F)n2)cn1 (single isomer, unassigned) [Example 55] | 24.4 | 3940 |

The next compounds have a lower IC50 (Human plasma kallikrein) than those just listed; values first:

| IC50 (Human plasma kallikrein) [nM] | IC50 (human factor XIa) [nM] | SMILES |
| --- | --- | --- |
| 3.8 | 869 | Cc1ncc(-c2c(C(F)F)ccc(Cl)c2F)nc1C(=O)Nc1cnn(C(C)c2cnc(N3CCC3)nc2)c1 (single isomer, unassigned) [Example 27, (S or R)-N-(1-(1-(2-(azetidin-1-yl)pyrimidin-5-yl)ethyl)-1H-pyrazol-4-yl)-6-(3-chloro-6-(difluoromethyl)-2-fluorophenyl)-3-methylpyrazine-2-carboxamide] |
| 11.9 | 927 | Cc1ncc(-c2c(C(F)F)ccc(Cl)c2F)nc1C(=O)Nc1cnn(C(C)c2cnc(N3CCC3)nc2)c1 (single isomer, unassigned) [Example 28, (R or S)-N-(1-(1-(2-(azetidin-1-yl)pyrimidin-5-yl)ethyl)-1H-pyrazol-4-yl)-6-(3-chloro-6-(difluoromethyl)-2-fluorophenyl)-3-methylpyrazine-2-carboxamide] |
| 7.8 | 2170 | CC(c1cnc(N2CCC2)cn1)n1cc(NC(=O)c2cncc(-c3c(C(F)F)ccc(Cl)c3F)n2)cn1 (single isomer, unassigned) [Example 30, (R or S)-N-(1-(1-(5-(azetidin-1-yl)pyrazin-2-yl)ethyl)-1H-pyrazol-4-yl)-6-(3-chloro-6-(difluoromethyl)-2-fluorophenyl)pyrazine-2-carboxamide] |
| 8.1 | 1520 | CC(c1cnc(N2CC3CC3C2)nc1)n1cc(NC(=O)c2cncc(-c3c(C(F)F)ccc(Cl)c3F)n2)cn1 (single isomer, unassigned) [Example 32, N-(1-((1R or 1S)-1-(2-(3-azabicyclo[3.1.0]hexan-3-yl)pyrimidin-5-yl)ethyl)-1H-pyrazol-4-yl)-6-(3-chloro-6-(difluoromethyl)-2-fluorophenyl)pyrazine-2-carboxamide] |
| 5 | 2580 | CC(c1ccc(N2CCC2)nc1)n1cc(NC(=O)c2cncc(-c3c(C(F)F)ccc(Cl)c3F)n2)cn1 (single isomer, unassigned) [Example 38, (R or S)-N-(1-(1-(6-(azetidin-1-yl)pyridin-3-yl)ethyl)-1H-pyrazol-4-yl)-6-(3-chloro-6-(difluoromethyl)-2-fluorophenyl)pyrazine-2-carboxamide] |
| 1.3 | 478 | Cc1nc(C(C)n2cc(NC(=O)c3cncc(-c4c(C(F)F)ccc(Cl)c4F)n3)cn2)cnc1N1CCC1 (single isomer, unassigned) [Example 39, (S or R)-N-(1-(1-(5-(azetidin-1-yl)-6-methylpyrazin-2-yl)ethyl)-1H-pyrazol-4-yl)-6-(3-chloro-6-(difluoromethyl)-2-fluorophenyl)pyrazine-2-carboxamide] |
| 3.7 | 794 | Cc1nc(C(C)n2cc(NC(=O)c3cncc(-c4c(C(F)F)ccc(Cl)c4F)n3)cn2)cnc1N1CCC1 (single isomer, unassigned) [Example 40, (R or S)-N-(1-(1-(5-(azetidin-1-yl)-6-methylpyrazin-2-yl)ethyl)-1H-pyrazol-4-yl)-6-(3-chloro-6-(difluoromethyl)-2-fluorophenyl)pyrazine-2-carboxamide] |
| 2.1 | 4210 | Cc1nc(N2CCC2)cnc1C(C)n1cc(NC(=O)c2cncc(-c3c(C(F)F)ccc(Cl)c3F)n2)cn1 (single isomer, unassigned) [Example 41, (S or R)-N-(1-(1-(5-(azetidin-1-yl)-3-methylpyrazin-2-yl)ethyl)-1H-pyrazol-4-yl)-6-(3-chloro-6-(difluoromethyl)-2-fluorophenyl)pyrazine-2-carboxamide] |
| 4.7 | 1110 | [2H]C(C)(c1cnc(N2CCC2)nc1)n1cc(NC(=O)c2cncc(-c3c(C(F)F)ccc(Cl)c3F)n2)cn1 (single isomer, unassigned) [Example 42, (S or R)-N-(1-(1-(2-(azetidin-1-yl)pyrimidin-5-yl)ethyl-1-d)-1H-pyrazol-4-yl)-6-(3-chloro-6-(difluoromethyl)-2-fluorophenyl)pyrazine-2-carboxamide] |
| 10.3 | 1460 | O=C(Nc1cnn(C(CO)c2cnc(N3CC4CC4C3)nc2)c1)c1cncc(-c2c(C(F)F)ccc(Cl)c2F)n1 (single isomer, unassigned) [Example 44, N-(1-((S or R)-1-(2-(3-Azabicyclo[3.1.0]hexan-3-yl)pyrimidin-5-yl)-2-hydroxyethyl)-1H-pyrazol-4-yl)-6-(3-chloro-6-(difluoromethyl)-2-fluorophenyl)pyrazine-2-carboxamide] |
| 3.7 | 595 | Cc1ncc(-c2c(C(F)F)ccc(Cl)c2F)nc1C(=O)Nc1cnn(C(CO)c2cnc(N3CCC3)nc2)c1 (single isomer, unassigned) [Example 46, (S or R)-N-(1-(1-(2-(Azetidin-1-yl)pyrimidin-5-yl)-2-hydroxyethyl)-1H-pyrazol-4-yl)-6-(3-chloro-6-(difluoromethyl)-2-fluorophenyl)-3-methylpyrazine-2-carboxamide] |
| 10.6 | 326 | Cc1ncc(-c2c(C(F)F)ccc(Cl)c2F)nc1C(=O)Nc1cnn(C(CO)c2cnc(N3CCC3)nc2)c1 (single isomer, unassigned) [Example 47, (R or S)-N-(1-(1-(2-(Azetidin-1-yl)pyrimidin-5-yl)-2-hydroxyethyl)-1H-pyrazol-4-yl)-6-(3-chloro-6-(difluoromethyl)-2-fluorophenyl)-3-methylpyrazine-2-carboxamide] |
